Assay results from patent US9944654B2, “Nargenicin compounds and uses thereof as antibacterial agents” (priority 2014, dated 2018).
Values after ≈ are worked out from the molar mass of the structure shown. Like-named read-outs stand apart in the source and are kept apart here.

Tests used:
[1] = molecular target: T1, S. aureus DnaE (DNA polymerase III α-subunit homolog from Staphylococcus aureus) (Staphylococcus aureus, UniProt Q5HF71); assay: biochemical; assay type: biochemical; conditions: for IC50: S. aureus DnaE IC50
T1 construct: SaDnaE (S. aureus DnaE residues 1-1065); 6xHis (N); made in house; host or cells: E. coli BL21-AI
T1 sequence (Q5HF71 1-1065): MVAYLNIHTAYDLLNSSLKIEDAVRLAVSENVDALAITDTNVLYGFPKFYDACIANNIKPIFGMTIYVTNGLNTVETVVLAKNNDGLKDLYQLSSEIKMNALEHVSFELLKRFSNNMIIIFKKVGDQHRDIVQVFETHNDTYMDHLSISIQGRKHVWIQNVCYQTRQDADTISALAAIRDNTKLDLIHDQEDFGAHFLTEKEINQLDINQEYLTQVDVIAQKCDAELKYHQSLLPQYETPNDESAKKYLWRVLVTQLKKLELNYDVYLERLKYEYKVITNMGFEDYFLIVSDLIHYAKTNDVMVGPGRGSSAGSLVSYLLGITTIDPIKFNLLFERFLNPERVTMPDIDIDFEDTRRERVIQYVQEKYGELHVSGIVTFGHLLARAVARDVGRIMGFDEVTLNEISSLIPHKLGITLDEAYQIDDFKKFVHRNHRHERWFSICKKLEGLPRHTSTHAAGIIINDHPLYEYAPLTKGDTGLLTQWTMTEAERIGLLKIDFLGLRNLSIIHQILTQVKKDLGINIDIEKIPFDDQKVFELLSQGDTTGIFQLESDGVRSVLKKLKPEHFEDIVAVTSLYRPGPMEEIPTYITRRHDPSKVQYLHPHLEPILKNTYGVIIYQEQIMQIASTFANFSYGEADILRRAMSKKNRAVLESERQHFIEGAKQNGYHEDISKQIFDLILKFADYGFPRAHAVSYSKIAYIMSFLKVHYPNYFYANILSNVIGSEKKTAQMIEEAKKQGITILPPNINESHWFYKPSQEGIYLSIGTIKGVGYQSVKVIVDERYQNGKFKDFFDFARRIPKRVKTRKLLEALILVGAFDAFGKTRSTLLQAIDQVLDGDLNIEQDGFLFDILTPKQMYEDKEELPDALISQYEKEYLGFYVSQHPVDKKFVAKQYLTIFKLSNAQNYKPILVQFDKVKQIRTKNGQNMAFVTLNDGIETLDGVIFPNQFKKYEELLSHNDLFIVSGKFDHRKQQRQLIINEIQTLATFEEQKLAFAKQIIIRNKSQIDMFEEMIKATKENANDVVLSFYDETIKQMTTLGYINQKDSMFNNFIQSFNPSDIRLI
Summary of the method: (§1)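 His-tagged E. coli DnaE (residues 1-1160, 0.8 μg/ml) or S. aureus DnaE (residues 1-1065, 0.05 μg/ml) incubated 30 min at 30° C. with activated calf thymus DNA, 0.025 mM dATP/dGTP/dCTP and 0.011 mM 3H-dTTP in Tris pH 7.5/Mg acetate. TCA-precipitated labelled DNA counted.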

[2] = test system: Pseudomonas aeruginosa MB5890 (CB1101, efflux-deleted); assay: microbe, parasite or virus in culture; assay type: cell-based; conditions: * = some reduction of growth versus control at […]; for MIC: Pseudomonas aeruginosa, read-out: P. aeruginosa MB5890 efflux-del (MIC), MHII broth
[3] = test system: Escherichia coli MB5747 (LS 883, tolC); assay: microbe, parasite or virus in culture; assay type: cell-based; conditions: * = some reduction of growth versus control at […]; for MIC: Escherichia coli, read-out: E. coli LS883 tolC (MIC), MHII broth
[4] = test system: Staphylococcus aureus MB6266 (MRSA COL); assay: Nargenicin antibacterial assay (MIC), S. aureus; assay type: cell-based; conditions: * = some reduction of growth versus control at […]; for MIC: Staphylococcus aureus, MRSA, read-out: S. aureus COL (MIC), MHII broth + 50% human serum
[5] = molecular target: T2, E. coli DnaE (DNA polymerase III α-subunit from Escherichia coli) (Escherichia coli, UniProt P10443); assay: In vitro DnaE single enzyme assay (E. coli); assay type: biochemical
T2 construct: EcDnaE (E. coli DnaE residues 1-1160); 6xHis (N); made in house; host or cells: E. coli BL21(DE3)
Summary of the method: as §1

[6] = test system: Streptococcus pneumoniae MB6357 (CL 2883); assay: Nargenicin antibacterial assay (MIC), S. pneumoniae; assay type: cell-based; conditions: * = some reduction of growth versus control at […]; for MIC: Streptococcus pneumoniae, read-out: S. pneumoniae MB2883 (MIC), Isosensitest broth
[7] = read-out: E. coli DnaE IC50 (converted)

T2 sequence (P10443 whole entry, the tested form may be a part): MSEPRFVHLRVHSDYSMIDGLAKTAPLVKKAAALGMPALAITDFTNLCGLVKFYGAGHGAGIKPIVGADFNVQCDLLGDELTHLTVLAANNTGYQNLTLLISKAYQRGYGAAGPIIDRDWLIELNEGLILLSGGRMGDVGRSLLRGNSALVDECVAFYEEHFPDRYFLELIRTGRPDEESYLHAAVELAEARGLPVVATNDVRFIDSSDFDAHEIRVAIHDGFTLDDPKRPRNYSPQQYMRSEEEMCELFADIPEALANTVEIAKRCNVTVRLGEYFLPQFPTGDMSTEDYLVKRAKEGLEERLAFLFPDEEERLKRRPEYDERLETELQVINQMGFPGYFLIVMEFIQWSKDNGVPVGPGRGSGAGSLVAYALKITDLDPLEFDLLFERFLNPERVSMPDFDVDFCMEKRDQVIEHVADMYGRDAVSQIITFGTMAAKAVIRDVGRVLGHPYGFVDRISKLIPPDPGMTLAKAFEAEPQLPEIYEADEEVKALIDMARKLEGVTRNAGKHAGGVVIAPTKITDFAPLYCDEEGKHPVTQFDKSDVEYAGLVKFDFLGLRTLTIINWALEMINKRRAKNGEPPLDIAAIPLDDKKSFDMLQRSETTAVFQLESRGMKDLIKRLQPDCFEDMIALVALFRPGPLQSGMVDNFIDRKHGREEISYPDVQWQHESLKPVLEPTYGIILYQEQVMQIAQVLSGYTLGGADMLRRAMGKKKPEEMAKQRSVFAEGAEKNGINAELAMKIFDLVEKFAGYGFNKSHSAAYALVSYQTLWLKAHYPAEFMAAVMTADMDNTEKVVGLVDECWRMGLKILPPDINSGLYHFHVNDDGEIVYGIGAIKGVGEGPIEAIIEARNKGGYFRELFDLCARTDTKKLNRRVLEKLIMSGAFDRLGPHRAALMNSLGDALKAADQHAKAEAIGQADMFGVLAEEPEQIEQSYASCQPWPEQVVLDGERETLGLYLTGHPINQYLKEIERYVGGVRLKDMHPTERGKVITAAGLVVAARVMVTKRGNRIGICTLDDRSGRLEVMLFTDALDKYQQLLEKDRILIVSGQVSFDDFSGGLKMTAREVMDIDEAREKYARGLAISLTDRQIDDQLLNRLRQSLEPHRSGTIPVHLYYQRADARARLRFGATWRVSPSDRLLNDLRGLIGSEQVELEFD

SMILES | IC50 [1] [µM] | MIC [2] [µg/mL] | MIC [3] [µg/mL] | MIC [4] [µg/mL] | IC50 ([5]; E. coli DnaE IC50) [µM] | MIC [6] [µg/mL] | IC50 [5, 7] [µM] | S. aureus DnaE IC50 [1] [µg/mL] | P. aeruginosa MB5890 efflux-del (MIC) ([2]; MHII broth) [µg/mL] | E. coli LS883 tolC (MIC) ([3]; MHII broth) [µg/mL] | S. aureus COL (MIC) ([4]; MHII broth + 50% human serum) [µg/mL] | E. coli DnaE IC50 [5] [µg/mL] | S. pneumoniae MB2883 (MIC) ([6]; Isosensitest broth) [µg/mL]
CO[C@H]1C[C@H]2C=C[C@H]3[C@H]4O[C@]2(/C(C)=C/[C@@H](C)[C@@H]([C@@H](C)O)OC1=O)[C@@H]3[C@H](O)[C@@H](C)[C@H]4OC(=O)c1[nH]c(Br)c(Br)c1Br [Example 41, (3R,4S,7S,8aS,10aR,11R,12R,13R,14R,14aS,14bS,E)-14-hydroxy-4-((R)-1-hydroxyethyl)-7-methoxy-1,3,13-trimethyl-6-oxo-3,4,6,7,8,8a,10a,11,12,13,14,14a-dodecahydro-11,14b-epoxynaphtho[2,1-e]oxecin-12-yl3,4,5-tribromo-1H-pyrrole-2-carboxylate] | 4.12 | > 128 | > 128 | > 128 | 79.8 | 8 (≈ 10.6 µM) | – | – | – | – | – | – | –
COC(=O)/C=C/c1c[nH]c(C(=O)O[C@@H]2[C@H](C)[C@@H](O)[C@@H]3[C@H]4C=CC5C[C@H](OC)C(=O)O[C@H](C(C)O)[C@H](C)/C=C(\C)[C@]53O[C@H]42)c1 (stereo partly drawn) [Example 166] | 0.3 | > 64 | 64 (≈ 107 µM) | > 64 | – | > 64 | > 83.4 | – | – | – | – | – | –
CO[C@H]1CC2C=C[C@H]3[C@H]4O[C@]2(/C(C)=C/[C@@H](C)[C@@H](C(C)O)OC1=O)[C@@H]3[C@H](O)[C@@H](C)[C@H]4OC(=O)c1ccc[nH]1 (stereo partly drawn) [Example 145, Nargenicin A1, reference compound] | < 0.0116 | 4 (≈ 7.76 µM) | 0.25 (≈ 0.485 µM) | 0.25 | – | > 128 | 1.75 | – | – | – | – | – | –
CO[C@H]1C[C@H]2C=CC3C4[C@H](O)[C@@H](C)[C@@H](OC(=O)c5ccc[nH]5)[C@@H]3O[C@]42/C(C)=C/[C@@H](C)[C@@H]([C@@H](C)OC(=O)C(=O)NC2CC2)OC1=O [Example 117] | – | – | – | – | – | – | – | 0.0007 | 4 | ≤0.125 | ≤0.125 | 11 | 128
CNS(=O)(=O)CCNC(=O)O[C@H](C)[C@H]1OC(=O)[C@@H](OC)C[C@H]2C=C[C@H]3[C@H]4O[C@]2(/C(C)=C/[C@H]1C)[C@@H]3[C@H](O)[C@@H](C)[C@H]4OC(=O)c1ccc[nH]1 [Example 13] | < 0.00883 | > 128 | 8 (≈ 11.8 µM) | 32 | – | > 128 | > 147 | – | – | – | – | – | –
CO[C@H]1CC2C=C[C@H]3[C@H]4O[C@]2(/C(C)=C/[C@@H](C)[C@@H]([C@@H](C)OC(=O)OC2CCC(O)CC2)OC1=O)[C@@H]3[C@H](O)[C@@H](C)[C@H]4OC(=O)c1ccc[nH]1 (single isomer, unassigned) [Example 34] | 0.0106 | > 128 | 32 (≈ 48.7 µM) | 32 | – | 64 (≈ 97.3 µM) | 106 | – | – | – | – | – | –
CO[C@H]1C[C@H]2C=C[C@H]3[C@H]4O[C@]2(/C(C)=C/[C@@H](C)[C@@H]([C@@H](C)OC(N)=O)OC1=O)[C@@H]3[C@H](O)[C@@H](C)[C@H]4OC(=O)c1ccc[nH]1 [Example 7] | < 0.0107 | 32 (≈ 57.3 µM) | 2 (≈ 3.58 µM) | 4 | – | > 128 | 53.7 | – | – | – | – | – | –
